This test addresses T1, phosphoMEK (activated MEK-1) (Homo sapiens, UniProt Q02750).
T1 construct: purchased Upstate (Waltham, Mass.) #14-429, lot #26232U
Put plainly: ATPase activity of commercially acquired phosphoMEK in the absence of B-Raf. Particulars: data not shown. The format is biochemical.

What is called IC50 is the concentration that inhibits the measured activity by half. A higher IC50 goes with lower potency.

T1 sequence (Q02750 whole entry): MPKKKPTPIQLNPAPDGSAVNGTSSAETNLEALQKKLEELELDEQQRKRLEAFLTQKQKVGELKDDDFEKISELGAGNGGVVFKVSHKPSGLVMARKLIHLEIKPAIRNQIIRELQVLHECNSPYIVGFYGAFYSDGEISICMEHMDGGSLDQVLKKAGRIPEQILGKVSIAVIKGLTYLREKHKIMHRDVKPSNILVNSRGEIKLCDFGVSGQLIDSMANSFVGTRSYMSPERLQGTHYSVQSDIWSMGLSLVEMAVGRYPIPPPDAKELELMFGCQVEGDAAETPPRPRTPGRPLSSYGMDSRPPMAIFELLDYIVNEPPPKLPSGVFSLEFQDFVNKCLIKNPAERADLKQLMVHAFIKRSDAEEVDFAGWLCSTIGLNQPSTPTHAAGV

`CN(C)CCOc1ccc(-c2nc(-c3ccncc3)c(-c3ccc4c(c3)CC/C4=N\O)[nH]2)cc1` [SB-590885]: the IC50 was greater than 10 µM.
